This is an account of results in patent US10221178B2, “Purine inhibitors of human phosphatidylinositol 3-kinase delta” (MERCK SHARP & DOHME CORP., priority 2015, dated 2019).

One assay concerns the target PI3Kdelta (Homo sapiens (Human), UniProt O00329). In words: HTRF PI3K biochemical assay, delta isoform. The settings on record: 0.3 nM enzyme, 100 uM ATP, 5 uM PIP2, form screened: Neutral. A digest of the protocol:
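0.3 nM PI3Kδ, pre-incubated 15 min at RT with compound (10-point 3-fold series), then reacted 1 h at RT with 100 uM ATP and 5 uM PIP2. After EDTA stop, PIP3 product detected by HTRF competition (GST-GRP1-PH, biotin-PIP3, Eu anti-GST, SA-APC), read 665/620 nm after 1 h.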
(In TR-FRET formats the signal depends on donor and acceptor labels being close together.)

Another assay deals with PI3Kalpha (Homo sapiens (Human), UniProt P42336). In words: HTRF PI3K biochemical assay, alpha isoform (selectivity versus PI3Kalpha). The settings on record: relative ratio (PI3K-alpha IC50 value/PI3K-delta IC50 value); form screened: Neutral. The method, boiled down:
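Uses recombinant PI3Kalpha at 0.5 nM with 100 uM ATP and 5 uM PIP2, after a 15 min RT compound pre-incubation and a 1 h RT reaction. PIP3 product displaces biotin-PIP3 from GST-GRP1 PH domain, read as HTRF 665/620 ratio. IC50 from a 10-point dose response, corrected via a PIP3 standard curve.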

As a reminder, the IC50 is the concentration that inhibits the measured activity by half. Read a high IC50 as a need for much substance.

Sequence of PI3Kdelta (O00329 whole entry, canonical isoform): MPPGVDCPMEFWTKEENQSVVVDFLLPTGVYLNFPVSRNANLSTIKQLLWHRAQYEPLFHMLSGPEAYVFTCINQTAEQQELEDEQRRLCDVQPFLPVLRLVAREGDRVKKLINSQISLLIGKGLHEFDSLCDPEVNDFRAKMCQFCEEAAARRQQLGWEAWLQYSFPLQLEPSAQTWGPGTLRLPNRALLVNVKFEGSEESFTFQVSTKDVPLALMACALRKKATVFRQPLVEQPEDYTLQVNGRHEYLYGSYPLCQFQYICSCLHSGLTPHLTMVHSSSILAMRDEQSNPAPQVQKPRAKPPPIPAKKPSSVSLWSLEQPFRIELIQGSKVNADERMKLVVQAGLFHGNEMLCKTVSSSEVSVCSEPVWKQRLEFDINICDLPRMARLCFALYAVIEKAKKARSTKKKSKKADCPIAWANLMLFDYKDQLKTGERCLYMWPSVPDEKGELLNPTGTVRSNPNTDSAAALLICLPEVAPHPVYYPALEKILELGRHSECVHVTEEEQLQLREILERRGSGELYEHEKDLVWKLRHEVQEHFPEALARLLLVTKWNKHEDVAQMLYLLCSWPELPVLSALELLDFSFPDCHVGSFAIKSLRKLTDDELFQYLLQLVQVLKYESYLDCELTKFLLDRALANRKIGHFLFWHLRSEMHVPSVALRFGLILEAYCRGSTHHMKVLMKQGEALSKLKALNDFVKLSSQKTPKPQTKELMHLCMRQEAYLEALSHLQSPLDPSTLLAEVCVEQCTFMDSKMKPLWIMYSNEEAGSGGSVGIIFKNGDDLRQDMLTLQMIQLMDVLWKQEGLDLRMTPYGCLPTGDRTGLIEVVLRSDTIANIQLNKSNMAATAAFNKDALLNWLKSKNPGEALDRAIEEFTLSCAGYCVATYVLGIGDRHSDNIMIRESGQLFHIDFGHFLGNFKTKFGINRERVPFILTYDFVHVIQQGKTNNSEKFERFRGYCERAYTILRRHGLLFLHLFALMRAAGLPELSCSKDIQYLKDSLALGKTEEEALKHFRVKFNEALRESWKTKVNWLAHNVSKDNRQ
Sequence of PI3Kdelta (P27986 whole entry partner, canonical isoform): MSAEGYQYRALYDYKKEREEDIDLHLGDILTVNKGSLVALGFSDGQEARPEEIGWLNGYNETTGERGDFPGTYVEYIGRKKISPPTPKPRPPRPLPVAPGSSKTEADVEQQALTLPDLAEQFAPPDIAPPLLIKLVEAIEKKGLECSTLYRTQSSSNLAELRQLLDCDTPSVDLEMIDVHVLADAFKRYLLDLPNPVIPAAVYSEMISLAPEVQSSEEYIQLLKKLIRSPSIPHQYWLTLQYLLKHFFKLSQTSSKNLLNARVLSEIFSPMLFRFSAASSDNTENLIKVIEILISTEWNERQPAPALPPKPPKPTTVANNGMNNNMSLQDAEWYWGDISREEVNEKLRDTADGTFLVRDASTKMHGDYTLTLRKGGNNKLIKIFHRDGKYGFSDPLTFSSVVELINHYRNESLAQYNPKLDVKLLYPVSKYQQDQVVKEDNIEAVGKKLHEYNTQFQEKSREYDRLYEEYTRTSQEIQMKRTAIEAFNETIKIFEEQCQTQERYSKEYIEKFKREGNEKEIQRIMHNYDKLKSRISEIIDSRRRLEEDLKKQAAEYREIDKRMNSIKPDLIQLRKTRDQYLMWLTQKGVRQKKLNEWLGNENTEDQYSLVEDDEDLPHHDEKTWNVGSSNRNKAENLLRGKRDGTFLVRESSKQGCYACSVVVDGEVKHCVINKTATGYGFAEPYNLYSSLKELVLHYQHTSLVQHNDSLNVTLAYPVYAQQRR
Sequence of PI3Kalpha (P42336 whole entry, the tested form may be a part, canonical isoform): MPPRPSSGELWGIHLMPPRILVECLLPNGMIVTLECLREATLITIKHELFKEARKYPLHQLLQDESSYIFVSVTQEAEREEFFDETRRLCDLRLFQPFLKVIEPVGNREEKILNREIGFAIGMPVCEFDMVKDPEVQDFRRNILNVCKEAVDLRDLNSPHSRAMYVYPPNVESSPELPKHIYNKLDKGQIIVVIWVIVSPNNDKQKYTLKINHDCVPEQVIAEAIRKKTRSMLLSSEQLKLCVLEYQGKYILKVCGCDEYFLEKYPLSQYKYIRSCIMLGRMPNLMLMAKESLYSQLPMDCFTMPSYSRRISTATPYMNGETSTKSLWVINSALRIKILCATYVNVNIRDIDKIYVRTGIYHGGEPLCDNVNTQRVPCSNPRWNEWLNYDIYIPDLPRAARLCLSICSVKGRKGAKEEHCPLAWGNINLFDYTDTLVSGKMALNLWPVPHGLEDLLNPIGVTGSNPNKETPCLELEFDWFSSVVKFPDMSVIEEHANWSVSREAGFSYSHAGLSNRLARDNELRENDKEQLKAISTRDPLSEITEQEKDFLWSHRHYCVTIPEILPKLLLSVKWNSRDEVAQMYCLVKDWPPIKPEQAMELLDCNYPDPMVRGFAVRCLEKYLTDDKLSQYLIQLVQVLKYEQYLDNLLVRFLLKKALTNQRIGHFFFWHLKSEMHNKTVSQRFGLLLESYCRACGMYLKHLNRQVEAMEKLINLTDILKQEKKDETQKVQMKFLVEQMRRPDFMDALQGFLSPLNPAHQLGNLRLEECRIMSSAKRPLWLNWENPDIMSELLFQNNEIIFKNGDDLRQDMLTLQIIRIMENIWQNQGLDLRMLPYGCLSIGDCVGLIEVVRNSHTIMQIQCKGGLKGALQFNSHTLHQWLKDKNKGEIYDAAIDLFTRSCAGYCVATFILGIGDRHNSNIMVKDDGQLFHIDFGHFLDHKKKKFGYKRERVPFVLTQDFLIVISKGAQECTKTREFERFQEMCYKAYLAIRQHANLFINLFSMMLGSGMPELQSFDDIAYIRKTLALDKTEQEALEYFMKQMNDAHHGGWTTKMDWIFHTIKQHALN
Sequence of PI3Kalpha (P27986 whole entry partner, the tested form may be a part, canonical isoform): as the sequence (P27986 whole entry partner, canonical isoform) above

As for `CCn1c(-c2cnc(C)nc2)nc2c(N[C@H](C(=O)N3C[C@@H](C)O[C@@H](C)C3)[C@@H](C)OC)ncnc21` [Compound 2-52, N-[(1S,2R)-1-{[(cis)-2,6-dimethylmorpholin-4-yl]carbonyl}-2-methoxypropyl]-9-ethyl-8-(2-methylpyrimidin-5-yl)-9H-purin-6-amine], half-maximal inhibition against PI3Kdelta (IC50) required 3.7 nM. In addition, the “Selectivity versus PI3Kalpha” value on PI3Kalpha is above 10.

Take `CCn1c(-c2cnc(C)nc2)nc2c(NCC3(C(=O)N4CCCC4)CC3)ncnc21` [Compound 2-61, 9-ethyl-8-(2-methylpyrimidin-5-yl)-N-{[1-(pyrrolidin-1-ylcarbonyl)cyclopropyl]methyl}-9H-purin-6-amine]: at PI3Kdelta, the IC50 stood at 93 nM. The “Selectivity versus PI3Kalpha” value at PI3Kalpha is reported as above 10.

The compound `CCn1c(-c2cnc(C)nc2)nc2c(N[C@@H](C)CC(=O)N3C[C@@H](C)O[C@@H](C)C3)ncnc21` [Compound 2-53, N-{(1S)-3-[(cis)-2,6-dimethylmorpholin-4-yl]-1-methyl-3-oxopropyl}-9-ethyl-8-(2-methylpyrimidin-5-yl)-9H-purin-6-amine] registered an IC50 against PI3Kdelta of 37 nM. Moreover, the “Selectivity versus PI3Kalpha” value on PI3Kalpha was above 10.

The compound `CCn1c(-c2cnc(C)nc2)nc2c(N[C@H](C(=O)N3C[C@@H](C)O[C@@H](C)C3)C3CC3)ncnc21` [Compound 2-40, N-{(1S)-1-cyclopropyl-2-[(cis)-2,6-dimethylmorpholin-4-yl]-2-oxoethyl}-9-ethyl-8-(2-methylpyrimidin-5-yl)-9H-purin-6-amine] came in with a half-inhibitory concentration (IC50) against PI3Kdelta of 4.1 nM. In addition, the “Selectivity versus PI3Kalpha” value on PI3Kalpha is on record as above 10.

On to `CC[C@H](Nc1ncnc2c1nc(-c1cnc(C)nc1)n2CC)C(=O)N1CCCC(OC)CC1` (mixture of isomers) [Compound 2-9, 9-ethyl-N-{(1S)-1-[(4-methoxyazepan-1-yl)carbonyl]propyl}-8-((R and S)-2-methylpyrimidin-5-yl)-9H-purin-6-amine], for which, at PI3Kdelta, the 50% inhibitory concentration (IC50) turned out to be 23 nM. The “Selectivity versus PI3Kalpha” value at PI3Kalpha is above 10.

The compound `CC[C@H](Nc1ncnc2c1nc(-c1cnc(C)nc1)n2CC)C(=O)N1CCOC(C)(C)C1` [Compound 2-33, N-{(1S)-1-[(2,2-dimethylmorpholin-4-yl)carbonyl]propyl}-9-ethyl-8-(2-methylpyrimidin-5-yl)-9H-purin-6-amine] showed an IC50 against PI3Kdelta of 9.8 nM. For the same compound, the “Selectivity versus PI3Kalpha” value on PI3Kalpha is listed as above 10.

Take `CC[C@H](Nc1ncnc2c1nc(-c1cnc(C)nc1)n2CC)C(=O)N1CCOC2(CC2)C1` [Compound 2-29, 9-ethyl-8-(2-methylpyrimidin-5-yl)-N-[(1S)-1-(4-oxa-7-azaspiro[2.5]oct-7-ylcarbonyl)propyl]-9H-purin-6-amine]: at PI3Kdelta, the half-maximal inhibitory concentration (IC50) is 11 nM. Moreover, the “Selectivity versus PI3Kalpha” value at PI3Kalpha is recorded as above 10.

`CCC(Nc1ncnc2c1nc(-c1cnc(C)nc1)n2CC)C(=O)N1CCc2c(c(C(C)C)nn2C)C1` (single isomer, unassigned) [Compound 5-2, (S or R)-9-ethyl-N-(1-{[1-methyl-3-(1-methylethyl)-1,4,6,7-tetrahydro-5H-pyrazolo[4,3-c]pyridin-5-yl]carbonyl}propyl)-8-(2-methylpyrimidin-5-yl)-9H-purin-6-amine] gave an IC50 against PI3Kdelta of 39 nM. Also, the “Selectivity versus PI3Kalpha” value at PI3Kalpha is on record as above 10.

Turning to `CC[C@H](Nc1ncnc2c1nc(-c1cnc(C)nc1)n2CC)C(=O)N1C[C@@H](C)N(C)[C@@H](C)C1` [Compound 4-3, 9-ethyl-8-(2-methylpyrimidin-5-yl)-N-[(1S)-1-{[cis-3,4,5-trimethylpiperazin-1-yl]carbonyl}propyl]-9H-purin-6-amine], the concentration for half-maximal inhibition (IC50) at PI3Kdelta was found to be 5.5 nM. The “Selectivity versus PI3Kalpha” value on PI3Kalpha is given as above 10.

Turning to `CC[C@H](Nc1ncnc2c1nc(-c1cnc(C)nc1)n2CC)C(=O)N1CCOC(COC)C1` (stereo partly drawn) [Compound 2-35, 9-ethyl-N-[(1S)-1-{[2-(methoxymethyl)morpholin-4 yl]carbonyl}propyl]-8-(2-methylpyrimidin-5-yl)-9H-purin-6-amine], on PI3Kdelta, the concentration for half-maximal inhibition (IC50) turned out to be 39 nM. Also, the “Selectivity versus PI3Kalpha” value on PI3Kalpha was above 10.

On PI3Kdelta, `CCC(Oc1ncnc2c1nc(-c1cnn(CC)c1C)n2C)C(=O)N1CCOCC1` (racemic) [Compound 1-1, (R and S)-8-(1-ethyl-5-methyl-1H-pyrazol-4-yl)-9-methyl-6-[1-(morpholin-4-ylcarbonyl)propoxy]-9H-purine] displayed a half-inhibitory concentration (IC50) of 320 nM. Further, the “Selectivity versus PI3Kalpha” value at PI3Kalpha is above 10.

The compound `CC[C@H](Nc1ncnc2c1nc(-c1cnc(C)nc1)n2CC)C(=O)N1CC(=O)N(C)C(C)C1` (single isomer, unassigned) [Compound 4-6, (S or R)-4-[(2S)-2-{[9-ethyl-8-(2-methylpyrimidin-5-yl)-9H-purin-6-yl]amino}butanoyl]-1,6-dimethylpiperazin-2-one] showed an IC50 on PI3Kdelta of 26 nM. The “Selectivity versus PI3Kalpha” value at PI3Kalpha is above 10.

The compound `CC[C@H](Nc1ncnc2c1nc(-c1cnc(C)nc1)n2CC)C(=O)N1CC2CCS(=O)(=O)C2C1` (mixture of isomers) [Compound 2-14, N-{(1S)-1-[((3a(R and S), 6a(R and S)-1,1-dioxidohexahydro-5H-thieno[2,3-c]pyrrol-5-yl)carbonyl]propyl}-9-ethyl-8-(2-methylpyrimidin-5-yl)-9H-purin-6-amine] displayed an IC50 at PI3Kdelta of 7 nM. The “Selectivity versus PI3Kalpha” value on PI3Kalpha is on record as above 10.

Regarding `CC[C@H](Nc1ncnc2c1nc(-c1cnc(C)nc1)n2CC)C(=O)N1C[C@H](C)O[C@@H](C)C1` (stereo in doubt) [Compound 2-36, N-[(1S)-1-{[(trans)-2,6-dimethylmorpholin-4-yl]carbonyl}propyl]-9-ethyl-8-(2-methylpyrimidin-5-yl)-9H-purin-6-amine], half-maximal inhibition at PI3Kdelta (IC50) was put at 9.1 nM. In addition, on PI3Kalpha, the “Selectivity versus PI3Kalpha” value is reported as above 10.

`CC[C@H](Nc1ncnc2c1nc(-c1cnc(C)nc1)n2CC)C(=O)N1CCCOCC1` [Compound 2-25, 9-ethyl-8-(2-methylpyrimidin-5-yl)-N-[(1S)-1-(1,4-oxazepan-4-ylcarbonyl)propyl]-9H-purin-6-amine] came in with a half-inhibitory concentration (IC50) at PI3Kdelta of 21 nM. The “Selectivity versus PI3Kalpha” value at PI3Kalpha is above 10.

As to `CCn1c(-c2cnc(C)nc2)nc2c(N[C@@H](CO)C(=O)N3C[C@@H](C)O[C@@H](C)C3)ncnc21` [Compound 2-47, (2S)-3-[(cis)-2,6-dimethylmorpholin-4-yl]-2-{[9-ethyl-8-(2-methylpyrimidin-5-yl)-9H-purin-6-yl]amino}-3-oxopropan-1-ol], half-maximal inhibition against PI3Kdelta (IC50) required 12 nM. In addition, the “Selectivity versus PI3Kalpha” value at PI3Kalpha is above 10.

For `CCn1c(-c2cnc(C)nc2)nc2c(N[C@@H](COC)C(=O)N3C[C@@H](C)O[C@@H](C)C3)ncnc21` [Compound 2-46, N-[(1S)-2-[(cis)-2,6-dimethylmorpholin-4-yl]-1-(methoxymethyl)-2-oxoethyl]-9-ethyl-8-(2-methylpyrimidin-5-yl)-9H-purin-6-amine], the 50% inhibitory concentration (IC50) against PI3Kdelta amounted to 27 nM. Further, the “Selectivity versus PI3Kalpha” value at PI3Kalpha is listed as above 10.

In turn, `CCC(Nc1ncnc2c1nc(-c1cnc(C)nc1)n2CC)C(=O)N1CCOCC1` (single isomer, unassigned) [Compound 1-8, (R or S)-9-ethyl-8-(2-methylpyrimidin-5-yl)-N-[1-(morpholin-4-ylcarbonyl)propyl]-9H-purin-6-amine] returned an IC50 against PI3Kdelta of 6.5 nM. Moreover, at PI3Kalpha, the “Selectivity versus PI3Kalpha” value was above 10.
